Results published in US7879862B2, “Pyrazolo[1,5-alpha]pyrimidinyl derivatives useful as corticotropin-releasing factor (CRF) receptor antagonists” (SmithKline Beecham (Cork) Limited, priority 2004, dated 2011).

These molecules were tested against T1, human CRF receptors (Homo sapiens, UniProt P34998) (assay: CRF receptor binding activity (radioligand displacement, Example 25)). Conditions: not given.
T1 construct: expressed in transfected cells
T1 sequence (P34998 24-415): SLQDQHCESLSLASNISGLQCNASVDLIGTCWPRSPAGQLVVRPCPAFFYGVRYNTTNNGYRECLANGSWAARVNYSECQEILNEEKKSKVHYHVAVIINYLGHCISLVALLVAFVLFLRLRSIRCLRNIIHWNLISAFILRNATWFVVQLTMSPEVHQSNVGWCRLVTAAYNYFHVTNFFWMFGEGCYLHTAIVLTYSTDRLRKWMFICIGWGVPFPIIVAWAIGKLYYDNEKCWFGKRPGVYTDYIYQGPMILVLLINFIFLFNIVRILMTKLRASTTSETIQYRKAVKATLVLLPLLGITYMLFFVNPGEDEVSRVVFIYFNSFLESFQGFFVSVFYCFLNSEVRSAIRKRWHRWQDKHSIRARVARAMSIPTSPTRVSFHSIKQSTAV
Source text: The effectiveness of a compound as a CRF receptor antagonist may be determined by various assay methods. […] CRF receptor affinity may be determined by binding studies that measure the ability of a compound to inhibit the binding of a radiolabeled CRF (e.g., [^125I]tyrosine-CFR) to its receptor (e.g., receptors prepared from rat cerebral cortex membranes). The radioligand binding assay described by DeSouza et al. (supra, 1987) provides an assay for determining a compound's affinity for the CRF receptor.
[formula] where L=radioligand and KD=affinity of radioligand for receptor (Cheng and Prusoff, Biochem. Pharmacol. 22:3099, 1973).
By utilizing radiolabeled CRF ligands, the assay may be used to evaluate the binding activity of the compounds of the present invention with any CRF receptor subtype.
Briefly, the binding assay involves the displacement of a radiolabeled CRF ligand from the CRF receptor. More specifically, the binding assay is performed in 96-well assay plates using 1-10 μg cell membranes from cells stably transfected with human CRF receptors. […] The mixture is incubated for 2 hours at 22° C. followed by separation of the bound and free radioligand by rapid filtration over glass fiber filters. Following three washes, the filters are dried and radioactivity (Auger electrons from ^125I) is counted using a scintillation counter. All radioligand binding data may be analyzed using the non-linear least-squares curve-fitting programs Prism (GraphPad Software Inc) or XLfit (ID Business Solutions Ltd).

Ki, < 100 nM:
COc1ccc(-c2c(C)nn3c(N[C@H](C)Cc4noc(C)n4)cc(C)nc23)c(C)c1 [Example 17-1, [3-(4-Methoxy-2-methyl-phenyl)-2,5-dimethyl-pyrazolo[1,5-a]pyrimidin-7-yl]-[(R)-1-methyl-2-(5-methyl-[1,2,4]oxadiazol-3-yl)-ethyl]-amine]
CCN(Cc1nc(C)no1)c1cc(C)nc2c(-c3ccc(OC)cc3C)c(C)nn12 [Example 20-1, Ethyl-[3-(4-methoxy-2-methyl-phenyl)-2,5-dimethyl-pyrazolo[1,5-a]pyrimidin-7-yl]-(3-methyl-[1,2,4]oxadiazol-5-ylmethyl)-amine]
CCC(Nc1cc(C)nc2c(-c3ccc(OC)cc3C)c(C)nn12)c1nnc(C)o1 (stereo not drawn) [Example 22-1, [3-(4-Methoxy-2-methyl-phenyl)-2,5-dimethyl-pyrazolo[1,5-a]pyrimidin-7-yl]-[1-(5-methyl-[1,3,4]oxadiazol-2-yl)-propyl]-amine]

Same assay, conditions: displacement of [125I] tyrosine-sauvagine from membranes of cells stably transfected with human CRF receptors; less than 0.10 μM (i.e., 100 nM); read-out: Ki (CRF receptor binding affinity)

Ki, < 100 nM:
COc1ccc(-c2c(C)nn3c(N[C@@H](Cc4nc(C)no4)C(F)(F)F)cc(C)nc23)c(C)c1 [Example 13-2, [3-(4-Methoxy-2-methyl-phenyl)-2,5-dimethyl-pyrazolo[1,5-a]pyrimidin-7-yl]-[2,2,2-trifluoro-(S)-1-(3-methyl-[1,2,4]oxadiazol-5-ylmethyl)-ethyl]-amine]
COc1ccc(-c2c(C)nn3c(NC(C)Cc4nc(C(F)(F)F)no4)cc(C)nc23)c(C)c1 (stereo not drawn) [Example 13-3, [3-(4-Methoxy-2-methyl-phenyl)-2,5-dimethyl-pyrazolo[1,5-a]pyrimidin-7-yl]-[1-methyl-2-(3-trifluoromethyl-[1,2,4]oxadiazol-5-yl)-ethyl]-amine]
COc1ccc(-c2c(C)nn3c(N[C@@H](Cc4nc(C)no4)C(F)(F)F)cc(C)nc23)c(Cl)c1 [Example 13-4, [3-(2-Chloro-4-methoxy-phenyl)-2,5-dimethyl-pyrazolo[1,5-a]pyrimidin-7-yl]-[2,2,2-trifluoro-(S)-1-(3-methyl-[1,2,4]oxadiazol-5-ylmethyl)-ethyl]-amine]
COc1ccc(-c2c(C)nn3c(N[C@H](C)Cc4nc(C(F)(F)F)no4)cc(C)nc23)c(C)c1 [Example 13-5, [3-(4-Methoxy-2-methyl-phenyl)-2,5-dimethyl-pyrazolo[1,5-a]pyrimidin-7-yl]-[(R)-1-methyl-2-(3-trifluoromethyl-[1,2,4]oxadiazol-5-yl)-ethyl]-amine]
COc1ccc(-c2c(C)nn3c(N[C@H](C)Cc4nc(C(F)(F)F)no4)cc(C)nc23)c(Cl)c1 [Example 13-6, [3-(2-Chloro-4-methoxy-phenyl)-2,5-dimethyl-pyrazolo[1,5-a]pyrimidin-7-yl]-[(R)-1-methyl-2-(3-trifluoromethyl-[1,2,4]oxadiazol-5-yl)-ethyl]-amine]
COc1ccc(-c2c(C)nn3c(N[C@H](C)Cc4nc(C(F)(F)F)no4)cc(C)nc23)c(OC)c1 [Example 13-7, [3-(2,4-Dimethoxy-phenyl)-2,5-dimethyl-pyrazolo[1,5-a]pyrimidin-7-yl]-[(R)-1-methyl-2-(3-trifluoromethyl-[1,2,4]oxadiazol-5-yl)-ethyl]-amine]
COc1ccc(-c2c(C)nn3c(N[C@@H](Cc4nc(C)no4)C(F)(F)F)cc(C)nc23)c(OC)c1 [Example 13-8, [3-(2,4-Dimethoxy-phenyl)-2,5-dimethyl-pyrazolo[1,5-a]pyrimidin-7-yl]-[2,2,2-trifluoro-(S)-1-(3-methyl-[1,2,4]oxadiazol-5-ylmethyl)-ethyl]-amine]
COc1ccc(-c2c(C)nn3c(N[C@@H](Cc4nc(C(F)(F)F)no4)C(F)(F)F)cc(C)nc23)c(OC)c1 [Example 13-9, [3-(2,4-Dimethoxy-phenyl)-2,5-dimethyl-pyrazolo[1,5-a]pyrimidin-7-yl]-[2,2,2-trifluoro-(S)-1-(3-trifluoromethyl-[1,2,4]oxadiazol-5-ylmethyl)-ethyl]-amine]
COc1ccc(-c2c(C)nn3c(N4CCC[C@H]4Cc4nc(C)no4)cc(C)nc23)c(C)c1 [Example 14-3, 3-(4-Methoxy-2-methyl-phenyl)-2,5-dimethyl-7-[(S)-2-(3-methyl-[1,2,4]oxadiazol-5-ylmethyl)-pyrrolidin-1-yl]-pyrazolo[1,5-a]pyrimidine]
CC[C@H](Nc1cc(C)nc2c(-c3ccc(OC)cc3Cl)c(C)nn12)c1nc(C)no1 [Example 14-4, [3-(2-Chloro-4-methoxy-phenyl)-2,5-dimethyl-pyrazolo[1,5-a]pyrimidin-7-yl]-[(S)-1-(3-methyl-[1,2,4]oxadiazol-5-yl)-propyl]-amine]
COCCN(Cc1nc(C)no1)c1cc(C)nc2c(-c3ccc(OC)cc3OC)c(C)nn12 [Example 15-1, [3-(2,4-Dimethoxy-phenyl)-2,5-dimethyl-pyrazolo[1,5-a]pyrimidin-7-yl]-(2-methoxy-ethyl)-(3-methyl-[1,2,4]oxadiazol-5-ylmethyl)-amine]
CC[C@@H](Cc1noc(C)n1)Nc1cc(C)nc2c(-c3ccc(OC)cc3C)c(C)nn12 [Example 17-2, [3-(4-Methoxy-2-methyl-phenyl)-2,5-dimethyl-pyrazolo[1,5-a]pyrimidin-7-yl]-[(S)-1-(5-methyl-[1,2,4]oxadiazol-3-ylmethyl)-propyl]-amine]
CC[C@H](Cc1noc(C)n1)Nc1cc(C)nc2c(-c3ccc(OC)cc3C)c(C)nn12 [Example 17-3, [3-(4-Methoxy-2-methyl-phenyl)-2,5-dimethyl-pyrazolo[1,5-a]pyrimidin-7-yl]-[(R)-1-(5-methyl-[1,2,4]oxadiazol-3-ylmethyl)-propyl]-amine]
COc1ccc(-c2c(C)nn3c(N[C@H](C)Cc4noc(C5CC5)n4)cc(C)nc23)c(C)c1 [Example 18-1, [(R)-2-(5-Cyclopropyl-[1,2,4]oxadiazol-3-yl)-1-methyl-ethyl]-[3-(4-methoxy-2-methyl-phenyl)-2,5-dimethyl-pyrazolo[1,5-a]pyrimidin-7-yl]-amine]
COc1ccc(-c2c(C)nn3c(N[C@H](C)Cc4noc(C(F)(F)F)n4)cc(C)nc23)c(C)c1 [Example 18-2, [3-(4-Methoxy-2-methyl-phenyl)-2,5-dimethyl-pyrazolo[1,5-a]pyrimidin-7-yl]-[(R)-1-methyl-2-(5-trifluoromethyl-[1,2,4]oxadiazol-3-yl)-ethyl]-amine]
COc1ccc(-c2c(C)nn3c(N[C@@H](Cc4noc(C)n4)C(F)(F)F)cc(C)nc23)c(C)c1 [Example 19-1, [3-(4-Methoxy-2-methyl-phenyl)-2,5-dimethyl-pyrazolo[1,5-a]pyrimidin-7-yl]-[(S)-2,2,2-trifluoro-1-(5-methyl-[1,2,4]oxadiazol-3-ylmethyl)-ethyl]-amine]
COc1ccc(-c2c(C)nn3c(N4CCCCC4Cc4nc(C)no4)cc(C)nc23)c(C)c1 (stereo not drawn) [Example 20-2, 3-(4-Methoxy-2-methyl-phenyl)-2,5-dimethyl-7-[2-(3-methyl-[1,2,4]oxadiazol-5-ylmethyl)-piperidin-1-yl]-pyrazolo[1,5-a]pyrimidine]
CCC(Nc1cc(C)nc2c(-c3ccc(OC)cc3C)c(C)nn12)c1nnco1 (stereo not drawn) [Example 21-1, [3-(4-Methoxy-2-methyl-phenyl)-2,5-dimethyl-pyrazolo[1,5-a]pyrimidin-7-yl]-(1-[1,3,4]oxadiazol-2-yl-propyl)-amine]
COc1ccc(-c2c(C)nn3c(NC(C)Cc4nnc(C(F)(F)F)o4)cc(C)nc23)c(C)c1 (stereo not drawn) [Example 23-2, [3-(4-Methoxy-2-methyl-phenyl)-2,5-dimethyl-pyrazolo[1,5-a]pyrimidin-7-yl]-[1-methyl-2-(5-trifluoromethyl-[1,3,4]oxadiazol-2-yl)-ethyl]-amine]
CCC(Nc1cc(C)nc2c(-c3ccc(OC)cc3Cl)c(C)nn12)c1nc(C)no1 (stereo not drawn) [Example 24-1, [3-(2-Chloro-4-methoxy-phenyl)-2,5-dimethyl-pyrazolo[1,5-a]pyrimidin-7-yl]-[1-(3-methyl-[1,2,4]oxadiazol-5-yl)-propyl]-amine]
CCC(Nc1cc(C)nc2c(-c3ccc(Cl)cc3OC)c(C)nn12)c1nc(C)no1 (stereo not drawn) [Example 24-2, [3-(4-Chloro-2-methoxy-phenyl)-2,5-dimethyl-pyrazolo[1,5-a]pyrimidin-7-yl]-[1-(3-methyl-[1,2,4]oxadiazol-5-yl)-propyl]-amine]
